# Experimental data from paper PMC9456400 (International Journal of Molecular Sciences, 2022).
# How the values were obtained:
# [1] = test system: ALK-negative A549 NSCLC cells; assay: MTT cell viability assay; settings: read-out: IC50 (cell viability)
# Procedure: (§1) Cell viability effects of lorlatinib were determined using the colorimetric MTT (3-4,5-dimethylthiazol-2-yl-2,5-diphenyl-tetrazolium bromide) reduction assay. Dose–response curves to graded concentrations of lorlatinib were plotted as a percentage of the control cell absorbance, which was obtained from control cells containing the vehicle (DMSO v/v) processed simultaneously. For each treatment, cell viability was evaluated using the following equation: (OD570 of the treated sample/OD570 of the untreated sample) × 100.
# [2] = cited from earlier work
# [3] = test system: H2228 NSCLC cell line (ALK rearrangement variant 3a/b); assay: MTT cell viability assay; settings: read-out: IC50 (cell viability)
# Procedure: as §1
# [4] = test system: Huh-7 cells; assay: UHPLC-ESI-QTOF-MS/MS lipidomics; format: cell-based, human
# Source text: We then questioned whether lorlatinib used at concentrations efficacious against ALK-rearranged lung cancer cells but non-toxic to ALK-negative cells could promote substantial lipidome changes in Huh-7 cells (Figure 1B; Table 1). Accordingly, […], and the lipidome was characterized in a semi-targeted approach using a UHPLC-ESI-QTOF-MS/MS method, in which we matched mass spectra with commercial standards (SPLAH mix), databases such as METLIN-PCDL and Lipid MAPS (accessed on 1 July 2022), as well as corroboration of tentative lipid species upon obtaining their MS/MS spectrum. Representative chromatograms of lipidomic analyses in Huh-7 cells can be found in Figure S1.
# Lipid extraction, preparation of external calibration curves, and quality control approaches were carried out as described. Samples (2 μL) were injected directly into a 1290 Infinity UHPLC system coupled with a dual Agilent jet stream ESI source to a 6550 QTOF-MS instrument (Agilent Technologies, Santa Clara, CA, USA). UHPLC-ESI-QTOF-MS conditions, data analysis and indirect quantification of selected lipid species using MassHunter Qualitative Analysis B.07.00 software (Agilent Technologies), and corroboration of the tentative characterization of compound match entities using the Lipid Maps database (www.lipidmaps.org, accessed on 1 July 2022) and targeted MS/MS acquisition on LC-QTOF-MS instrument, have been previously described in detail.
# Differentially expressed lipid species from untargeted lipidomic data were analyzed by generating volcano plots indicating statistical significance versus magnitude of fold-change for each lipid species (cutoff of Benjamini–Hochberg corrected p-value < 0.05 and log2 fold-change > 1 or […]).
# [5] = test system: H3122 NSCLC cell line (ALK rearrangement variant 1); assay: MTT cell viability assay; settings: read-out: IC50 (cell viability)
# Procedure: as §1
# [6] = single 100 mg oral dose ref 46, 47
# [7] = Huh-7 cells, SBN 100 µmol/L, lorlatinib 1 µmol/L, median
structure (smiles),measurement,setting,value
"C[C@H]1Oc2cc(cnc2N)-c2c(nn(C)c2C#N)CN(C)C(=O)c2ccc(F)cc21 [lorlatinib, (10R)-7-amino-12-fluoro-2,10,16-trimethyl-15-oxo-10,15,16,17-tetrahydro-2H-8,4-(metheno)pyrazolo [4,3-h][2,5,11]-benzoxadiazacyclotetradecine-3-carbonitrile]",IC50,[1],19000 ± 5000 nM
same,Fraction metabolized during first-pass hepatic or pre-systemic metabolism,"[2]; human, in vivo",12%
same,Hepatic extraction ratio,"[2]; human, in vivo",< 30%
same,Peak plasma concentration,[2]; [6],> 2 µmol/L
same,Time to peak plasma concentration,[2]; [6],0.5 to 4 h
same,IC50,[3],900 ± 200 nM
same,"Change of lipid species, single agent","[4]; Huh-7, 48 h, lorlatinib 1 μmol/L, silibinin 100 μmol/L","significantly increase several species of ChoE, numerous molecular species of long-chain TG, and several DG, LPC, and PC species"
same,Relative concentration of ChoE 16:0,[4]; [7],11.335 µmol/mg protein
same,Relative concentration of ChoE 16:1,[4]; [7],25.820 µmol/mg protein
same,Relative concentration of ChoE 17:0,[4]; [7],2.170 µmol/mg protein
same,Relative concentration of ChoE 17:1,[4]; [7],5.670 µmol/mg protein
same,Relative concentration of ChoE 18:0,[4]; [7],4.365 µmol/mg protein
same,Relative concentration of ChoE 18:2,[4]; [7],33.284 µmol/mg protein
same,Relative concentration of ChoE 18:3,[4]; [7],12.818 µmol/mg protein
same,Relative concentration of ChoE 20:2,[4]; [7],6.459 µmol/mg protein
same,Relative concentration of ChoE 20:3,[4]; [7],42.167 µmol/mg protein
same,Relative concentration of ChoE 20:4,[4]; [7],107.967 µmol/mg protein
same,Relative concentration of ChoE 20:5,[4]; [7],68.788 µmol/mg protein
same,Relative concentration of ChoE 22:4,[4]; [7],27.538 µmol/mg protein
same,Relative concentration of ChoE 22:5,[4]; [7],59.058 µmol/mg protein
same,Relative concentration of DG 34:1,[4]; [7],16.654 µmol/mg protein
same,Relative concentration of DG 34:2,[4]; [7],17.722 µmol/mg protein
same,Relative concentration of DG 34:3,[4]; [7],2.474 µmol/mg protein
same,Relative concentration of DG 36:0,[4]; [7],2.250 µmol/mg protein
same,Relative concentration of DG 36:1,[4]; [7],8.885 µmol/mg protein
same,Relative concentration of DG 36:2,[4]; [7],20.022 µmol/mg protein
same,Relative concentration of DG 36:3,[4]; [7],2.186 µmol/mg protein
same,Relative concentration of DG 36:4,[4]; [7],4.172 µmol/mg protein
same,Relative concentration of DG 40:4,[4]; [7],9.158 µmol/mg protein
same,Relative concentration of LPC 15:0,[4]; [7],0.094 µmol/mg protein
same,Relative concentration of LPC 16:0,[4]; [7],3.165 µmol/mg protein
same,Relative concentration of LPC 16: e,[4]; [7],0.023 µmol/mg protein
same,Relative concentration of LPC 18:0,[4]; [7],1.911 µmol/mg protein
same,Relative concentration of LPC 18:0e,[4]; [7],0.014 µmol/mg protein
same,Relative concentration of LPC 18:1,[4]; [7],1.630 µmol/mg protein
same,Relative concentration of LPC 18:2,[4]; [7],0.188 µmol/mg protein
same,Relative concentration of LPC 20:0,[4]; [7],0.047 µmol/mg protein
same,Relative concentration of LPC 20:3,[4]; [7],0.080 µmol/mg protein
same,Relative concentration of PC 30:0,[4]; [7],6.654 µmol/mg protein
same,Relative concentration of PC 31:0,[4]; [7],3.243 µmol/mg protein
same,Relative concentration of PC 32:0,[4]; [7],20.672 µmol/mg protein
same,Relative concentration of PC 32:1,[4]; [7],56.675 µmol/mg protein
same,Relative concentration of PC 32:1e,[4]; [7],0.780 µmol/mg protein
same,Relative concentration of PC 32:2,[4]; [7],7.800 µmol/mg protein
same,Relative concentration of PC 33:0,[4]; [7],3.109 µmol/mg protein
same,Relative concentration of PC 33:1,[4]; [7],12.338 µmol/mg protein
same,Relative concentration of PC 33:2,[4]; [7],1.113 µmol/mg protein
same,Relative concentration of PC 34:0,[4]; [7],5.917 µmol/mg protein
same,Relative concentration of PC 34:1,[4]; [7],93.696 µmol/mg protein
same,Relative concentration of PC 34:1e,[4]; [7],0.856 µmol/mg protein
same,Relative concentration of PC 34:2,[4]; [7],49.219 µmol/mg protein
same,Relative concentration of PC 34:2e,[4]; [7],0.709 µmol/mg protein
same,Relative concentration of PC 34:3,[4]; [7],5.578 µmol/mg protein
same,Relative concentration of PC 34:4,[4]; [7],0.930 µmol/mg protein
same,Relative concentration of PC 35:1,[4]; [7],6.392 µmol/mg protein
same,Relative concentration of PC 35:2,[4]; [7],6.219 µmol/mg protein
same,Relative concentration of PC 35:4,[4]; [7],1.817 µmol/mg protein
same,Relative concentration of PC 36:0,[4]; [7],0.209 µmol/mg protein
same,Relative concentration of PC 36:1,[4]; [7],24.222 µmol/mg protein
same,Relative concentration of PC 36:2,[4]; [7],46.840 µmol/mg protein
same,Relative concentration of PC 36:2e,[4]; [7],0.101 µmol/mg protein
same,Relative concentration of PC 36:3,[4]; [7],20.945 µmol/mg protein
same,Relative concentration of PC 36:4,[4]; [7],26.422 µmol/mg protein
same,Relative concentration of PC 36:5,[4]; [7],6.790 µmol/mg protein
same,Relative concentration of PC 36:5e,[4]; [7],0.749 µmol/mg protein
same,Relative concentration of PC 38:2,[4]; [7],1.747 µmol/mg protein
same,Relative concentration of PC 38:3,[4]; [7],2.875 µmol/mg protein
same,Relative concentration of PC 38:4,[4]; [7],12.355 µmol/mg protein
same,Relative concentration of PC 38:5,[4]; [7],12.838 µmol/mg protein
same,Relative concentration of PC 38:5e,[4]; [7],0.193 µmol/mg protein
same,Relative concentration of PC 38:6,[4]; [7],9.312 µmol/mg protein
same,Relative concentration of PC 38:6e,[4]; [7],0.353 µmol/mg protein
same,Relative concentration of PC 40:4,[4]; [7],0.298 µmol/mg protein
same,Relative concentration of PC 40:4e,[4]; [7],0.087 µmol/mg protein
same,Relative concentration of PC 40:5,[4]; [7],1.883 µmol/mg protein
same,Relative concentration of PC 40:6,[4]; [7],2.981 µmol/mg protein
same,Relative concentration of PC 42:4e,[4]; [7],0.056 µmol/mg protein
same,Relative concentration of PC 42:5e,[4]; [7],0.118 µmol/mg protein
same,Relative concentration of PE 32:0,[4]; [7],0.231 µmol/mg protein
same,Relative concentration of PE 36:4,[4]; [7],15.311 µmol/mg protein
same,Relative concentration of PE 36:5e,[4]; [7],1.339 µmol/mg protein
same,Relative concentration of PE 38:5e,[4]; [7],0.649 µmol/mg protein
same,Relative concentration of SM 32:0,[4]; [7],0.350 µmol/mg protein
same,Relative concentration of SM 32:1,[4]; [7],2.087 µmol/mg protein
same,Relative concentration of SM 32:2,[4]; [7],0.032 µmol/mg protein
same,Relative concentration of SM 33:1,[4]; [7],1.877 µmol/mg protein
same,Relative concentration of SM 34:1,[4]; [7],22.397 µmol/mg protein
same,Relative concentration of SM 34:2,[4]; [7],1.973 µmol/mg protein
same,Relative concentration of SM 35:0,[4]; [7],1.702 µmol/mg protein
same,Relative concentration of SM 35:1,[4]; [7],0.803 µmol/mg protein
same,Relative concentration of SM 36:0,[4]; [7],0.297 µmol/mg protein
same,Relative concentration of SM 36:1,[4]; [7],1.764 µmol/mg protein
same,Relative concentration of SM 36:2,[4]; [7],0.702 µmol/mg protein
same,Relative concentration of SM 38:1,[4]; [7],0.595 µmol/mg protein
same,Relative concentration of SM 38:2,[4]; [7],0.151 µmol/mg protein
same,Relative concentration of SM 39:1,[4]; [7],0.210 µmol/mg protein
same,Relative concentration of SM 40:0,[4]; [7],0.286 µmol/mg protein
same,Relative concentration of SM 40:1,[4]; [7],1.575 µmol/mg protein
same,Relative concentration of SM 40:2,[4]; [7],0.891 µmol/mg protein
same,Relative concentration of SM 41:1,[4]; [7],0.637 µmol/mg protein
same,Relative concentration of SM 41:2,[4]; [7],0.065 µmol/mg protein
same,Relative concentration of SM 42:1,[4]; [7],2.064 µmol/mg protein
same,Relative concentration of SM 42:2,[4]; [7],3.149 µmol/mg protein
same,Relative concentration of SM 42:3,[4]; [7],0.805 µmol/mg protein
same,Relative concentration of SM 43:1,[4]; [7],0.128 µmol/mg protein
same,Relative concentration of SM 43:2,[4]; [7],0.358 µmol/mg protein
same,Relative concentration of TG 46:0,[4]; [7],1.549 µmol/mg protein
same,Relative concentration of TG 46:1,[4]; [7],2.111 µmol/mg protein
same,Relative concentration of TG 46:2,[4]; [7],1.025 µmol/mg protein
same,Relative concentration of TG 48:0,[4]; [7],2.372 µmol/mg protein
same,Relative concentration of TG 48:1,[4]; [7],5.318 µmol/mg protein
same,Relative concentration of TG 48:2,[4]; [7],4.451 µmol/mg protein
same,Relative concentration of TG 48:3,[4]; [7],1.146 µmol/mg protein
same,Relative concentration of TG 50:0,[4]; [7],1.142 µmol/mg protein
same,Relative concentration of TG 50:1,[4]; [7],9.399 µmol/mg protein
same,Relative concentration of TG 50:2,[4]; [7],11.302 µmol/mg protein
same,Relative concentration of TG 50:3,[4]; [7],4.462 µmol/mg protein
same,Relative concentration of TG 50:4,[4]; [7],1.054 µmol/mg protein
same,Relative concentration of TG 51:2,[4]; [7],2.969 µmol/mg protein
same,Relative concentration of TG 52:1,[4]; [7],3.455 µmol/mg protein
same,Relative concentration of TG 52:2,[4]; [7],16.188 µmol/mg protein
same,Relative concentration of TG 52:3,[4]; [7],12.354 µmol/mg protein
same,Relative concentration of TG 52:4,[4]; [7],3.787 µmol/mg protein
same,Relative concentration of TG 52:5,[4]; [7],1.312 µmol/mg protein
same,Relative concentration of TG 52:6,[4]; [7],0.708 µmol/mg protein
same,Relative concentration of TG 54:2,[4]; [7],3.515 µmol/mg protein
same,Relative concentration of TG 54:3,[4]; [7],11.096 µmol/mg protein
same,Relative concentration of TG 54:4,[4]; [7],6.556 µmol/mg protein
same,Relative concentration of TG 54:5,[4]; [7],4.411 µmol/mg protein
same,IC50,[5],3 ± 0.2 nM
